Measured values taken from PubChem BioAssay (NCI).
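All cell lines were grown in 96-well plates and treated with compound for 48 hours. GI50 marks 50% less growth. TGI: total growth inhibition.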

Experiments:
Test in all cases: growth of human tumour cells (NCI), 48 h
NCI/ADR-RES ovarian = test system: NCI/ADR-RES ovarian
SW-620 colon = test system: SW-620 colon
MDA-MB-231 breast = test system: MDA-MB-231 breast
MOLT-4 leukemia = test system: MOLT-4 leukemia
MALME-3M melanoma = test system: MALME-3M melanoma
SF-295 CNS = test system: SF-295 CNS
HCC-2998 colon = test system: HCC-2998 colon
SK-MEL-2 melanoma = test system: SK-MEL-2 melanoma
COLO 205 colon = test system: COLO 205 colon
NCI-H226 lung = test system: NCI-H226 lung

Row | Structure (SMILES) | GI50 (NCI/ADR-RES ovarian) | TGI (NCI/ADR-RES ovarian) | GI50 (SW-620 colon) | TGI (SW-620 colon) | GI50 (MDA-MB-231 breast) | TGI (MDA-MB-231 breast) | GI50 (MOLT-4 leukemia) | TGI (MOLT-4 leukemia) | GI50 (MALME-3M melanoma) | TGI (MALME-3M melanoma) | GI50 (SF-295 CNS) | TGI (SF-295 CNS) | GI50 (HCC-2998 colon) | TGI (HCC-2998 colon) | GI50 (SK-MEL-2 melanoma) | TGI (SK-MEL-2 melanoma) | GI50 (COLO 205 colon) | TGI (COLO 205 colon) | GI50 (NCI-H226 lung) | TGI (NCI-H226 lung)
1 | Clc1ccc(CNc2nccc(-c3cnn4ncccc34)n2)cc1 | 6750 nM | > 25 µM | 8.42 µM | > 25 µM | 8.5 µM | > 25 µM | 8160 nM | > 25 µM | 8.94 µM | 23.3 µM | 5.36 µM | > 18.2 µM | 6.67 µM | 18.4 µM | 5.25 µM | 11.5 µM | 4.86 µM | 9.76 µM | 7.79 µM | > 25 µM
2 | COc1cc2c3c(n(CCCBr)c(=O)c2cc1OC)-c1ccc(F)cc1C3=O | 13300 nM | > 100 µM | 7.02 µM | > 100 µM | 66.3 µM | > 100 µM | 2890 nM | 10.6 µM | 43 µM | > 100 µM | 1.69 µM | 9.23 µM | 13.7 µM | > 100 µM | 23 µM | 80.6 µM | 33.4 µM | > 100 µM | 28 µM | > 100 µM
3 | CCC1(NC(=O)c2cc(F)c(F)c(F)c2F)C(=O)NC(=O)N(C(C)C)C1=O (centres undefined) | 31800 nM | 88.3 µM | 20.1 µM | 50.7 µM | 19.3 µM | 48.7 µM | 22600 nM | 78.8 µM | 24.9 µM | 76.3 µM | 27.4 µM | 87.3 µM | 1.94 µM | 3.97 µM |  |  | 27.5 µM | > 100 µM | 19.1 µM | 46.4 µM
4 | C=C(CNC(=O)c1ccccc1)c1ccc(C(=O)Nc2ccccc2N)cc1 | 2350 nM | > 100 µM | 3.62 µM | > 100 µM | 5.56 µM | 45.1 µM | 1490 nM | > 100 µM | 2 µM | > 100 µM | 12.5 µM | > 100 µM | 9.3 µM | > 100 µM | 5.2 µM | > 100 µM | 5.88 µM | > 100 µM | 1.39 µM | 7.41 µM
5 | N#Cc1nc2c(S(=O)(=O)c3ccccc3)c(N)n(Cc3ccc(Cl)cc3)c2nc1C#N | 424 nM | 10.3 µM | 17 µM | > 50 µM | 5.08 µM | 14.9 µM |  |  |  |  | 14.7 µM | > 50 µM | 3.6 µM | 10.8 µM | 32.6 µM | > 50 µM | 17.8 µM | > 50 µM |  | 
6 | CN(C)CCSCCO |  | > 100 µM |  | > 100 µM |  | > 100 µM |  |  |  | > 100 µM |  | > 100 µM |  | > 100 µM |  | > 100 µM |  | > 100 µM |  | > 100 µM
7 | C=C1C(OC/C=C/COC2O[C@@H]3O[C@@]4(C)CC[C@H]5[C@H](C)CC[C@@H](C2=C)[C@@]35OO4)O[C@@H]2O[C@@]3(C)CC[C@H]4[C@H](C)CC[C@@H]1[C@@]24OO3 (some centres undefined) | 203 nM | 18.1 µM | 0.0863 µM | 23.6 µM | 11.4 µM | 51.3 µM | 309 nM | > 100 µM | 0.301 µM | 18.4 µM |  | 2.19 µM |  |  | 16 µM | > 100 µM | 0.226 µM | 13.6 µM | 4.32 µM | 33.5 µM
8 | COc1ccc(Cn2cc3c(c2-c2cc(OC)c(OC)c(OC)c2)CCc2cnoc2-3)cc1N | 35.7 nM | > 100 µM | 0.038 µM | > 100 µM | 0.158 µM | > 100 µM | 64.8 nM | > 45.9 µM | 0.0382 µM | > 100 µM | 0.0369 µM | > 100 µM | 0.0882 µM | > 42 µM |  |  | 0.251 µM | 0.789 µM | 0.537 µM | > 100 µM
9 | CCCCCCCCCCCCCCCCCCOc1ccccc1CC(=O)NCC[N+](C)(C)C | 22600 nM | 62.6 µM | 5.8 µM | 40.8 µM | 4.27 µM | 66.6 µM |  |  | 14.8 µM | 94 µM | 5.09 µM | 38.9 µM | 3.15 µM | 21.9 µM | 12.7 µM | 44.7 µM |  |  | 4.4 µM | 42.9 µM
10 | CSc1ccc(SC2c3ccc(C)cc3Oc3nc(N)c(C#N)c(N)c32)cc1 (centres undefined) | 2220 nM | 5.46 µM | 2.03 µM | 4.28 µM | 1.6 µM | 3 µM | 2390 nM | 6.05 µM | 1.54 µM | 3.01 µM | 1.58 µM | 2.97 µM | 1.78 µM | 3.28 µM | 2.11 µM | 4.12 µM |  |  | 1.81 µM | 3.27 µM
11 | Cc1cnccc1N=Nc1ccc(N(C)C)cc1 |  | 46.4 µM |  | > 100 µM |  | 70.6 µM |  | 79.5 µM |  | > 100 µM |  | 57.5 µM |  | 49.6 µM |  |  |  | 26.1 µM |  | 29.1 µM
